Measurements: ChEMBL document CHEMBL1143964, “Novel pyrazolo[1,5-a]pyrimidines as c-Src kinase inhibitors that reduce IKr channel blockade” (Bioorg Med Chem, 2008)
pIC50: −log10 of the molar value.

Key:
[1] = molecular target: T1, IKr channel (Oryctolagus cuniculus, UniProt Q28705); assay: Inhibition of Ikr channel in rabbit ventricular myocytes at 30 uM
[2] = Drug level in Sprague-Dawley rat brain at 3 mg/kg, iv after 1 hr; assay type: ADME, organism-based; design: dose 3 mg/kg, route intravenous; settings: read-out: Drug uptake
[3] = Drug level in Sprague-Dawley rat plasma at 3 mg/kg, iv after 1 hr; assay type: ADME, organism-based; design: dose 3 mg/kg, route intravenous
[4] = Ratio of drug level in brain to plasma in Sprague-Dawley rat at 3 mg/kg, iv after 1 hr; assay type: ADME, organism-based; design: dose 3 mg/kg, route intravenous; settings: read-out: BPR
[5] = molecular target: T2, Proto-oncogene tyrosine-protein kinase Src (Homo sapiens, UniProt P12931); assay: Inhibition of human cSrc in COS7 cells by ELISA; assay type: cell-based, COS-7
T2 sequence (P12931 2-536 limits assumed): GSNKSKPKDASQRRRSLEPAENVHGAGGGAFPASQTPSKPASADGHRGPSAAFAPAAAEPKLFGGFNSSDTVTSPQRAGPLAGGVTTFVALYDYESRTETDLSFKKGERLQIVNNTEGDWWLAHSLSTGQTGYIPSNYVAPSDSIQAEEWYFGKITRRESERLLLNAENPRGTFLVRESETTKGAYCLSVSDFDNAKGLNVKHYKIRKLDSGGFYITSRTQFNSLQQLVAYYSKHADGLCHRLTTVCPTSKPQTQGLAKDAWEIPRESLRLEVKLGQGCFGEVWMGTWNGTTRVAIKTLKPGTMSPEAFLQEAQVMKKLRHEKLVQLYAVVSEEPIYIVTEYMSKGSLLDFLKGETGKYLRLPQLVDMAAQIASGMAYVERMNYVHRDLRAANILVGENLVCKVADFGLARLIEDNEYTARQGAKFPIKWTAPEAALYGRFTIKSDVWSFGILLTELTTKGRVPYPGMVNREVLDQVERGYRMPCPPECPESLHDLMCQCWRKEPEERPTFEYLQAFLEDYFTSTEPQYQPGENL

[6] = molecular target: T2, Proto-oncogene tyrosine-protein kinase Src; assay: Inhibition of human cSrc
[7] = molecular target: T1, IKr channel; assay: Inhibition of Ikr channel in rabbit ventricular myocytes at 10 uM; assay type: cell-based, Ventricular myocyte
[8] = Half life in Sprague-Dawley rat middle cerebral artery occlusion model at 3 mg/kg, iv; assay type: ADME, organism-based; design: dose 3 mg/kg, route intravenous; settings: in vivo
[9] = molecular target: T3, Tyrosine-protein kinase ZAP-70 (Homo sapiens, UniProt P43403); assay: Inhibition of ZAP
T3 sequence (P43403 whole entry): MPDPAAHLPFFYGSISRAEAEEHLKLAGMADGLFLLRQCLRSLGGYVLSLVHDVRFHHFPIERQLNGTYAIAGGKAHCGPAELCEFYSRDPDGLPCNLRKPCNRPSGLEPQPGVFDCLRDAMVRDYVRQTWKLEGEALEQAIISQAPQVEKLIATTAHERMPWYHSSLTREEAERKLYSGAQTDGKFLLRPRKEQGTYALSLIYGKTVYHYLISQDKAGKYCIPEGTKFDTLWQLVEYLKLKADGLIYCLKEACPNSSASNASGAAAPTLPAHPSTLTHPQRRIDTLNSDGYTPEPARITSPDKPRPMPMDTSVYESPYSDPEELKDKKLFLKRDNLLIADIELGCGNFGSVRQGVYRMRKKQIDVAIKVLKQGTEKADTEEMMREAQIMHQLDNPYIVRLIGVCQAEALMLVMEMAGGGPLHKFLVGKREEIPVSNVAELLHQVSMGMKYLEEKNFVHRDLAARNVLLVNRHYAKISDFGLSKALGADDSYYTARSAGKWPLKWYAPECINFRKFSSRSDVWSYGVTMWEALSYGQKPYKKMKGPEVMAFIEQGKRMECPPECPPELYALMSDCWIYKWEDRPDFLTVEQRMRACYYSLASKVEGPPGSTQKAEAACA

[10] = AUC (0 to infinity) in Sprague-Dawley rat middle cerebral artery occlusion model at 3 mg/kg, iv; assay type: ADME, organism-based; design: time infinity, dose 3 mg/kg, route intravenous; settings: in vivo
[11] = molecular target: Vascular endothelial growth factor receptor 2 (Homo sapiens, UniProt P35968); assay: Inhibition of KDR
Vascular endothelial growth factor receptor 2, sequence (P35968 whole entry): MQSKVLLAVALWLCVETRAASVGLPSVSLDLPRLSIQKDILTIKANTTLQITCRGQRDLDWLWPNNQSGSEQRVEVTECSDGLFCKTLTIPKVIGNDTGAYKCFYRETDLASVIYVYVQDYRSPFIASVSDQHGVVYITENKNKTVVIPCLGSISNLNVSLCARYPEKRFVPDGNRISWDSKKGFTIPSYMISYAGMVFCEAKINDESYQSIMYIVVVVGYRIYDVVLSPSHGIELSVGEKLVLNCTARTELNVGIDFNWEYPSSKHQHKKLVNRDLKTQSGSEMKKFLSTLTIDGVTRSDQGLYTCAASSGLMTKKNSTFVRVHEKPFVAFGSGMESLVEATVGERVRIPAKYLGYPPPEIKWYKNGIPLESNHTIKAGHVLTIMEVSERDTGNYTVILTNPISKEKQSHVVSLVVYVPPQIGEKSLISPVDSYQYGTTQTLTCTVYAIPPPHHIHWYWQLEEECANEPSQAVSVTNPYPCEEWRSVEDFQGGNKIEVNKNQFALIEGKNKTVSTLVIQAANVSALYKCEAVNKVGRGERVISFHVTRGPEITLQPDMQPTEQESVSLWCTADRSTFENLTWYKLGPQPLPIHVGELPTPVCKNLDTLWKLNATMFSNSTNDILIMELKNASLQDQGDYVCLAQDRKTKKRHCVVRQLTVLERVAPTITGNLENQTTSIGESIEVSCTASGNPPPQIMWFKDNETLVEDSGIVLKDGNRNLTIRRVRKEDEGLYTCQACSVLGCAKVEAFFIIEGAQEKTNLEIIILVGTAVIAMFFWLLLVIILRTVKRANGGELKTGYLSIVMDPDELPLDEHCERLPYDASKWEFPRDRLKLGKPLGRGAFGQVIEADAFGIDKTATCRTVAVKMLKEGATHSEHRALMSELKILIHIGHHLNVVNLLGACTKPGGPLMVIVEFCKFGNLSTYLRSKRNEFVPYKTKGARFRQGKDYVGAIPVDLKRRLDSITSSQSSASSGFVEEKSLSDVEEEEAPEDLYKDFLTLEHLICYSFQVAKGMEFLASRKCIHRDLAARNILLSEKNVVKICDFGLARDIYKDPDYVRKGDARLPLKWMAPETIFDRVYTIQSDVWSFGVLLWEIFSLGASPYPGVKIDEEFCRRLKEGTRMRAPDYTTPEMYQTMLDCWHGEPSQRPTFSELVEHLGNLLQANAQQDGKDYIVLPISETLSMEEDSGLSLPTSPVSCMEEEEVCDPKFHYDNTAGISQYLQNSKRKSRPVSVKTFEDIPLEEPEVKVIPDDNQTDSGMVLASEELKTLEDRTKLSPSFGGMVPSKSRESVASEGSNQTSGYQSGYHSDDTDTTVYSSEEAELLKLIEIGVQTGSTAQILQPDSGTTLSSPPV

[12] = molecular target: Tyrosine-protein kinase SYK (Homo sapiens, UniProt P43405); assay: Inhibition of Syk
[13] = Clearance in Sprague-Dawley rat middle cerebral artery occlusion model at 3 mg/kg, iv; assay type: ADME, organism-based; design: dose 3 mg/kg, route intravenous; settings: in vivo
[14] = molecular target: Protein kinase C beta type (Homo sapiens, UniProt P05771); assay: Inhibition of PKCbeta
Protein kinase C beta type, sequence (P05771 whole entry): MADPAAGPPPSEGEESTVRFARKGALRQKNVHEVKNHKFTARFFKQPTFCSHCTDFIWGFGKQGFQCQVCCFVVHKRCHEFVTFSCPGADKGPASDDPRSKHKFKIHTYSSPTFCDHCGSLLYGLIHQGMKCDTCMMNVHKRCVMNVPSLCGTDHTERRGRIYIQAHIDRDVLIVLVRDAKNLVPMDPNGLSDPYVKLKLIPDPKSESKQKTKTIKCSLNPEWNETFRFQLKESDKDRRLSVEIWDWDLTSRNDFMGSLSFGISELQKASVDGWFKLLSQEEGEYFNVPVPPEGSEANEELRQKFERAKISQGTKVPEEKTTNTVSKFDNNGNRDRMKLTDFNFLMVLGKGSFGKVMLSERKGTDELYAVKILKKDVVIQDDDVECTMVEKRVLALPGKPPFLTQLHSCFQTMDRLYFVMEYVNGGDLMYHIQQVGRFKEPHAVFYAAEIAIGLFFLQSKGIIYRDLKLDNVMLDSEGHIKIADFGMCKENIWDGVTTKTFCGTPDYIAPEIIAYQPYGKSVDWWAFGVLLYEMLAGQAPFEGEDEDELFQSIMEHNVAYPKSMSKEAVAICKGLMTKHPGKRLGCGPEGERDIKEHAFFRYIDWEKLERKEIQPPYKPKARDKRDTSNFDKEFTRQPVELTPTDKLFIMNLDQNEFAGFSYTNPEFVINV

[15] = molecular target: Epidermal growth factor receptor (Homo sapiens, UniProt P00533)
Epidermal growth factor receptor, sequence (P00533 whole entry): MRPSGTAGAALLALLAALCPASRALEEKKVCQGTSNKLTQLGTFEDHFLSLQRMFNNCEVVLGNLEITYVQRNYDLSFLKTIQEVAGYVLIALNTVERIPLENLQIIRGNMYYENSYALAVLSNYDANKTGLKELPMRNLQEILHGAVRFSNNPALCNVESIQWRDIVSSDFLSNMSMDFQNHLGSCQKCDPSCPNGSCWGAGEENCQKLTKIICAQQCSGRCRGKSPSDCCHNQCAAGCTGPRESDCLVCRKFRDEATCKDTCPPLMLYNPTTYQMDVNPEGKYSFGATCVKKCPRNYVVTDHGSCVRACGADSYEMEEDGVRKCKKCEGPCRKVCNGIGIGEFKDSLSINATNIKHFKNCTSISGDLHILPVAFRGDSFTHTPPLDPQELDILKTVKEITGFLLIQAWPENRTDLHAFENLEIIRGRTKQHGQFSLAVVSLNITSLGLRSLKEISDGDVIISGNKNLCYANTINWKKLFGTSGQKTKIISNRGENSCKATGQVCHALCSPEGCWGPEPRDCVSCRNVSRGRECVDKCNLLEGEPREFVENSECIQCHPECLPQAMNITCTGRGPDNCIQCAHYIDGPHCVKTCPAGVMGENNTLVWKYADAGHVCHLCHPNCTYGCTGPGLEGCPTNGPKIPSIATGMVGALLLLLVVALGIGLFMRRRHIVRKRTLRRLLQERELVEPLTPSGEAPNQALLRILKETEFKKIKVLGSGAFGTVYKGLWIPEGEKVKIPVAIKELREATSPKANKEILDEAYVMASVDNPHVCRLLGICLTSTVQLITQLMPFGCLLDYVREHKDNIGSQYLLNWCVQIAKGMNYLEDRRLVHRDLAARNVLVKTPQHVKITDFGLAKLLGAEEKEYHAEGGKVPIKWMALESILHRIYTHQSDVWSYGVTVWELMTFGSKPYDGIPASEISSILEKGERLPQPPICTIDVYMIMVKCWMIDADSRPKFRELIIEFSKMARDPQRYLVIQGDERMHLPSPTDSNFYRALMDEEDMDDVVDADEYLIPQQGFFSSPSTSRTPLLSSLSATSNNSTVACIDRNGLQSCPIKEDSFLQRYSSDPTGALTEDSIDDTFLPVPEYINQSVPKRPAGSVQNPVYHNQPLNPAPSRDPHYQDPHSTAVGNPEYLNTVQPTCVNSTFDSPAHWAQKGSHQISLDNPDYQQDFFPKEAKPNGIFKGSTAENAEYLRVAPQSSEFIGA

[16] = Volume of distribution at steady state in Sprague-Dawley rat middle cerebral artery occlusion model at 3 mg/kg, iv; assay type: ADME, organism-based; design: dose 3 mg/kg, route intravenous; settings: in vivo, read-out: Vdss
[17] = molecular target: Tyrosine-protein kinase Lck (Homo sapiens, UniProt P06239)
Tyrosine-protein kinase Lck, sequence (P06239 whole entry): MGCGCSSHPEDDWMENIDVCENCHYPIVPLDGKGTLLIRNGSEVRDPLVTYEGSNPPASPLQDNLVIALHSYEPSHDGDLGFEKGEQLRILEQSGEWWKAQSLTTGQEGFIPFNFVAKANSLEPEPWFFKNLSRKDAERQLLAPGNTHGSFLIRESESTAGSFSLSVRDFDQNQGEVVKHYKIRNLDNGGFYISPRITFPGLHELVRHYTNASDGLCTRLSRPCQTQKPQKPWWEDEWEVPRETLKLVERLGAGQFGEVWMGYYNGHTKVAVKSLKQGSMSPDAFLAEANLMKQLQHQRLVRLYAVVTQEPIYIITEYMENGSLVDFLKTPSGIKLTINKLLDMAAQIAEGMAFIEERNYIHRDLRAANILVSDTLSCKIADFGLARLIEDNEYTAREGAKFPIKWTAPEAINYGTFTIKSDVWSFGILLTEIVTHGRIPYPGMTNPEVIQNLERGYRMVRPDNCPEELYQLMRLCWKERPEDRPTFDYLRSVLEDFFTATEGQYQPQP

T1 sequence (Q28705 whole entry): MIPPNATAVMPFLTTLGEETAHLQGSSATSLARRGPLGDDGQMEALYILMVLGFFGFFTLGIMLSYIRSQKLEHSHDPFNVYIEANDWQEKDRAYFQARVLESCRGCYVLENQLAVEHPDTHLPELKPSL

## COc1cc(Nc2nn3c(N[C@H](CO)Cc4c[nH]c5ccccc45)cc(C4CC4)nc3c2C(N)=O)cc(OC)c1
[1]
  inhibition at 30 µM: 5.4%
[2]
  concentration at 1 h: 89 ng/g
[3]
  concentration at 1 h: 80 ng/mL
[4]
  Kp at 1 h: 1.1
[5]
  pIC50: 6.30
[6]
  pIC50: 8.30

## COc1cc(Nc2nn3c(N[C@@H](CO)C(C)C)cc(C(C)C)nc3c2C(N)=O)cc(OC)c1
[1]
  inhibition at 30 µM: 14.6%
[6]
  pIC50: 7.39

## COc1cc(Nc2nn3c(N[C@H](CO)Cc4cccnc4)cc(C4CC4)nc3c2C(N)=O)cc(OC)c1
[3]
  concentration at 1 h: 81 ng/mL
[5]
  pIC50: 7.00
[6]
  pIC50: 8.30

## COc1cc(Nc2nn3c(N[C@@H](CO)C(C)C)cc(C4CC4)nc3c2C(N)=O)cc(OC)c1
[2]
  concentration at 1 h: 126 ng/g
[3]
  concentration at 1 h: 346 ng/mL
[4]
  Kp at 1 h: 0.4
[5]
  pIC50: 7.00
[6]
  pIC50: 8.10

## COc1cc(Nc2nn3c(N4CCC[C@@H]4CO)cc(C4CC4)nc3c2C(N)=O)cc(OC)c1
[1]
  inhibition at 30 µM: 14.2%
[6]
  pIC50: 8.05

## COc1cc(Nc2nn3c(N[C@@H](CO)C(C)C)cc(-c4ccccc4)nc3c2C(N)=O)cc(OC)c1
[1]
  inhibition at 30 µM: 12.4%
[6]
  pIC50: 7.17

## COc1cc(Nc2nn3c(N4CCC[C@H]4CO)cc(C4CC4)nc3c2C(N)=O)cc(OC)c1
[6]
  pIC50: 7.60

## COc1cc(Nc2nn3c(NC[C@@H](C)N)cc(C)nc3c2C(N)=O)cc(OC)c1
[7]
  inhibition at 10 µM: 47.9%
[6]
  pIC50: 6.39

## COc1cc(Nc2nn3c(N[C@@H](CO)C(C)C)cc(C)nc3c2C(N)=O)cc(OC)c1
[6]
  pIC50: 6.36

## COc1cc(Nc2nn3c(N[C@H](CO)Cc4ccccc4)cc(C4CC4)nc3c2C(N)=O)cc(OC)c1
[8]
  half-life: 22 min
[9]
  pIC50: < 5.00
[1]
  inhibition at 30 µM: 23.4%
[10]
  AUC(0-inf): 1990 ng·h/mL
[11]
  pIC50: < 5.00
[2]
  concentration at 1 h: 256 ng/g
[3]
  concentration at 1 h: 273 ng/mL
[12]
  pIC50: < 5.00
[13]
  clearance: 25 mL/min/kg
[4]
  Kp at 1 h: 0.9
[5]
  pIC50: 7.00
[14]
  pIC50: < 5.00
[15]
  pIC50: 5.62
[16]
  Vd: 0.53 L/kg
[6]
  pIC50: 8.52
[17]
  pIC50: 8.15

## COc1cc(Nc2nn3c(NC[C@H](C)N)cc(C)nc3c2C(N)=O)cc(OC)c1
[7]
  inhibition at 10 µM: 99.1%
[6]
  pIC50: 5.52

## COc1cc(Nc2nn3c(N[C@@H](C)CO)cc(C)nc3c2C(N)=O)cc(OC)c1
[6]
  pIC50: 5.46

## COc1cc(Nc2nn3c(N[C@@H](CO)Cc4ccccc4)cc(C4CC4)nc3c2C(N)=O)cc(OC)c1
[6]
  pIC50: 7.92

## COc1cc(Nc2nn3c(N[C@H](CO)C(C)C)cc(C)nc3c2C(N)=O)cc(OC)c1
[6]
  pIC50: 5.92

## COc1cc(Nc2nn3c(NCC(C)(C)N)cc(C)nc3c2C(N)=O)cc(OC)c1
[5]
  pIC50: 6.05
[7]
  inhibition at 10 µM: 90.7%
[6]
  pIC50: 6.76

## COc1cc(Nc2nn3c(NC[C@@H](C)O)cc(C)nc3c2C(N)=O)cc(OC)c1
[6]
  pIC50: 5.17

## COc1cc(Nc2nn3c(NC[C@H](C)O)cc(C)nc3c2C(N)=O)cc(OC)c1
[6]
  pIC50: 5.04
